Results published in patent US8569267B2, “Tetracyclic tetrahydrofuran derivatives containing cyclic amine side chain” (Janssen Pharmaceutica, NV, priority 2005, dated 2013).
pIC50: −log10 of the molar value. Read-outs that look alike come from different tables or passages of the source.

Tests used:
[1] = target: T1, NET (norepinephrine transporter) (Rattus norvegicus, UniProt Q63380); experiment: In vitro determination of NET reuptake inhibition ([3H]Nixosetine binding, rat brain cortex); details: for IC50: read-out: NET pIC50 (converted)
T1 construct: Cortex from rat brain was collected and homogenised; from tissue; host or cells: rat brain cortex
T1 sequence (Q63380 1-617): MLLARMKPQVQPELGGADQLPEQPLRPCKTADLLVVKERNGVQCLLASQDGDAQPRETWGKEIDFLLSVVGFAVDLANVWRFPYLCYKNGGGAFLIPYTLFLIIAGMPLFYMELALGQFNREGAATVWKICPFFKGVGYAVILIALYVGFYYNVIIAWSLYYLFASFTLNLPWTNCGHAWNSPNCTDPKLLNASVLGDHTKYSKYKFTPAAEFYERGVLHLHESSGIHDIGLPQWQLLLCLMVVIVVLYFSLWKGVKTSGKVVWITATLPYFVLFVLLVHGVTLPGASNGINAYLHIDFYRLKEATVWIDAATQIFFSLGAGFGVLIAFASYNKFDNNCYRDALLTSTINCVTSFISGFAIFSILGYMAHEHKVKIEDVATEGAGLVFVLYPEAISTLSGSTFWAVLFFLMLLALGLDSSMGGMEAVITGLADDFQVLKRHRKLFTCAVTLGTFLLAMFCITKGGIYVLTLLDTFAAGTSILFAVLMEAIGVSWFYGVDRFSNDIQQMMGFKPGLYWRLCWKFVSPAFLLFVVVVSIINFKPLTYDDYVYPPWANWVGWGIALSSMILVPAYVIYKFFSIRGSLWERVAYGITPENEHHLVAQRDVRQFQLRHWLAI
Procedure: In Vitro Determination of NET Reuptake Inhibition
Cortex from rat brain was collected and homogenised using an Ultra-Turrax T25 and a Dual homogeniser in ice-cold homogenising buffer containing Tris, NaCl and KCl (50 mM, 120 mM and 5 mM, respectively, pH 7.4) prior to dilution to an appropriate protein concentration optimised for specific and non-specific binding. […] Membrane-bound activity was detected by filtration through a Packard Filtermate harvester onto GF/B Unifilterplates, washed with ice-cold Tris-HCl buffer, containing NaCl and KCl (50 mM, 120 mM and 4 mM; pH 7.4; 6×0.5 ml). Filters were allowed to dry for 24 h before adding scintillation fluid. Scintillation fluid was allowed to saturate filters for 24 h before counting in a Topcount scintillation counter. Percentage specific bound and competition binding curves were calculated using S-Plus software (Insightful).

[2] = target: T2, human Dopamine D2L receptor (Homo sapiens, UniProt P14416); experiment: In vitro binding affinity for human D2L receptor ([3H]Spiperone binding); details: for IC50 / D2L pIC50: human D2L receptor-transfected CHO cell membranes; for IC50: read-out: D2L pIC50 (converted)
T2 construct: expressed in transfected cells; host or cells: CHO cells
T2 sequence (P14416 whole entry): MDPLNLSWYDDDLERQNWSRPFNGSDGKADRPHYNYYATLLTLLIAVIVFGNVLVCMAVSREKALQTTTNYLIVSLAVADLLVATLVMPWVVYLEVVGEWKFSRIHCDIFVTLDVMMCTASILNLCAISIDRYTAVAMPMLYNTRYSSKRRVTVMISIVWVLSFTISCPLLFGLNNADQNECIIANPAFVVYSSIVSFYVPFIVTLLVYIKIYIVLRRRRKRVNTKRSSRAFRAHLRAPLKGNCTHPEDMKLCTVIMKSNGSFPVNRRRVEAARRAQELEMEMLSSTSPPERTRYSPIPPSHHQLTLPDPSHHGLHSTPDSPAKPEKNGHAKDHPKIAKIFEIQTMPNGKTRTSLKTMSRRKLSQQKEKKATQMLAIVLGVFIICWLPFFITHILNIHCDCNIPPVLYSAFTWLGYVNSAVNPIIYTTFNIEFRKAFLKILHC
Procedure: In Vitro Binding Affinity for Human D2L Receptor
Frozen membranes of human Dopamine D2L receptor-transfected CHO cells were thawed, briefly homogenised using an Ultra-Turrax T25 homogeniser and diluted in Tris-HCl assay buffer containing NaCl, CaCl2, MgCl2, KCl (50, 120, 2, 1, and 5 mM respectively, adjusted to pH 7.7 with HCl) to an appropriate protein concentration optimised for specific and non-specific binding. Radioligand [^3H]Spiperone (NEN, specific activity ˜70 Ci/mmol) was diluted in assay buffer at a concentration of 2 nmol/L. Prepared radioligand (50 μl), along with 50 μl of either the 10% DMSO control, Butaclamol (10^−6 mol/l final concentration), or compound of interest, was then incubated (30 min, 37° C.) with 400 μl of the prepared membrane solution. Membrane-bound activity was filtered through a Packard Filtermate harvester onto GF/B Unifilterplates and washed with ice-cold Tris-HCl buffer (50 mM; pH 7.7; 6×0.5 ml). Filters were allowed to dry before adding scintillation fluid and counting in a Topcount scintillation counter. Percentage specific bound and competition binding curves were calculated using S-Plus software (Insightful).

[3] = target: T3, human cloned 5-HT2C receptor, expressed in CHO cells (Homo sapiens, UniProt P28335); experiment: In vitro binding affinity for 5-HT2C receptor ([3H]mesulergine radioligand binding); details: for IC50: read-out: 5-HT2C pIC50 (converted)
T3 construct: expressed in transfected cells; host or cells: CHO cells
T3 sequence (P28335 33-458): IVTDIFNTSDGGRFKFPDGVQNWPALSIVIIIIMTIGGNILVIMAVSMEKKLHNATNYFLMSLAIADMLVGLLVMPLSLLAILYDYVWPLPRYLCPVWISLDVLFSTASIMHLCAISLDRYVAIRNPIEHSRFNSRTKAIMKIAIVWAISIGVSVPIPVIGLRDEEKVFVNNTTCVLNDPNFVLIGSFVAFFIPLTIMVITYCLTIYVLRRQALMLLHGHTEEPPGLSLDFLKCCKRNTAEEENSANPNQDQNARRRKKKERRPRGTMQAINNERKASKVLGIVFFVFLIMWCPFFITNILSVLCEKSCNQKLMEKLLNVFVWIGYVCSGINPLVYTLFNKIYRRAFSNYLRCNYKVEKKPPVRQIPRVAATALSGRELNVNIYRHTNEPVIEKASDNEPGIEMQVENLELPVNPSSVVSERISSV
Procedure: In Vitro Binding Affinity for 5-HT2A and 5-HT2C Receptors
The interaction of the compounds of Formula (I) with 5-HT2A and 5-HT2C receptors was assessed in in vitro radioligand binding experiments. […] During the incubation, the radioligands bind to the receptor. When equilibrium of binding is reached, the receptor bound radioactivity is separated from the non-bound radioactivity, and the receptor bound activity is counted. The interaction of the test compounds with the receptors is assessed in competition binding experiments. Various concentrations of the test compound are added to the incubation mixture containing the tissue preparation and the radioligand. Binding of the radioligand will be inhibited by the test compound in proportion to its binding affinity and its concentration.

SMILES	IC50 ([1]; rat brain cortex)	IC50 [2]	IC50 ([3]; human cloned 5-HT2C receptor)	also measured
O=C(NCc1ccco1)C1CCN(CC2CC3c4ccccc4Cc4ccc(F)cc4C3O2)CC1 (stereo not drawn) [Compound 194]	9120 nM	5.01 nM	1.45 nM	
O=C(NC1CCN(CC2CC3c4ccccc4Cc4ccc(F)cc4C3O2)CC1)c1cccc(F)c1 (stereo not drawn) [Compound 231]	8510 nM	1.86 nM	10.7 nM	
O=C(O)C1CCN(C[C@H]2C[C@@H]3c4ccccc4Cc4ccc(F)cc4[C@@H]3O2)CC1 [Compound 157]	> 10000 nM	132 nM	7.24 nM	
OC1CCCN(CC2CC3c4ccccc4Cc4ccc(F)cc4C3O2)C1 (single isomer, unassigned) [Compound 142]	2400 nM	14.5 nM	3.16 nM	
OCCC1CCCN(CC2CC3c4ccccc4Cc4ccc(F)cc4C3O2)C1 (mixture of isomers) [Compound 152]	3800 nM	17 nM	4.17 nM	
Cc1onc(-c2ccccc2Cl)c1C(=O)NC1CCN(CC2CC3c4ccccc4Cc4ccc(F)cc4C3O2)CC1 (stereo not drawn) [Compound 222]	> 10000 nM	15.1 nM	19.5 nM	
N#Cc1ccc2c(c1)C1CC(CN3CCC(O)C3)OC1c1cc(F)ccc1S2.O=C(O)C(=O)O (mixture of isomers) [Compound 259]				NET pIC50 ([1]; rat brain cortex): 5.38; D2L pIC50 [2]: 6.59; 5-HT2C pIC50 ([3]; human cloned 5-HT2C receptor): 7.64
Fc1ccc2c(c1)C1OC(CN3CCOC(CCOc4ccccc4)C3)CC1c1ccccc1C2 (mixture of isomers) [Compound 131]	2400 nM	19.5 nM	30.9 nM	
CCOC(=O)C1CCCN(C[C@H]2C[C@@H]3c4ccccc4Cc4ccc(F)cc4[C@@H]3O2)C1 (stereo partly drawn) [Compound 160]	> 10000 nM	14.5 nM	2.88 nM	
O=C(O)C(=O)O.OC1CCN(CC2CC3c4ccccc4Oc4ccc(F)cc4C3O2)CC1 (stereo not drawn) [Compound 283]				D2L pIC50 [2]: 6.70
CCCCOC(=O)NC1CCN(CC2CC3c4ccccc4Cc4ccc(F)cc4C3O2)CC1 (stereo not drawn) [Compound 213]	4370 nM	8.71 nM	15.5 nM	
O=C(NC1CCN(CC2CC3c4ccccc4Cc4ccc(F)cc4C3O2)CC1)c1ccccc1Cl (stereo not drawn) [Compound 227]	9120 nM	5.25 nM	11.2 nM	
COc1ccc(OC(=O)NC2CCN(CC3CC4c5ccccc5Cc5ccc(F)cc5C4O3)CC2)cc1 (stereo not drawn) [Compound 219]				pIC50 ([1]; NET pIC50, rat brain cortex): < 5.00; pIC50 ([2]; D2L pIC50, human D2L receptor-transfected CHO cell membranes): 8.47; pIC50 ([3]; 5-HT2C pIC50, human cloned 5-HT2C receptor): 8.40
O=C(CSc1ccccc1)NC1CCN(CC2CC3c4ccccc4Cc4ccc(F)cc4C3O2)CC1 (stereo not drawn) [Compound 241]	7760 nM	5.5 nM	6.46 nM	
COCCOC(=O)NC1CCN(CC2CC3c4ccccc4Cc4ccc(F)cc4C3O2)CC1 (stereo not drawn) [Compound 216]	> 10000 nM	10.2 nM	6.17 nM	
O=C(Nc1ccccc1F)C1CCN(CC2CC3c4ccccc4Cc4ccc(F)cc4C3O2)CC1 (stereo not drawn) [Compound 189]	> 10000 nM	7.76 nM	1.17 nM	
COc1cc(NC(=S)NC2CCN(CC3CC4c5ccccc5Cc5ccc(F)cc5C4O3)CC2)cc(OC)c1OC (stereo not drawn) [Compound 255]	5620 nM	20.4 nM	20.4 nM	
OC1CCCN(CC2CC3c4ccccc4Cc4ccc(F)cc4C3O2)C1 (racemic) [Compound 141]	4790 nM	16.6 nM	1.15 nM	

SMILES	IC50 ([1]; rat brain cortex)	IC50 [2]	IC50 ([3]; human cloned 5-HT2C receptor)	also measured
O=C(NC1CCN(CC2CC3c4ccccc4Cc4ccc(F)cc4C3O2)CC1)c1cccc(C(F)(F)F)c1 (stereo not drawn) [Compound 233]	5250 nM	14.8 nM	30.9 nM	
O=C(NC1CCN(CC2CC3c4ccccc4Cc4ccc(F)cc4C3O2)CC1)c1ccc(Cl)c(Cl)c1 (stereo not drawn) [Compound 229]	> 10000 nM	14.8 nM	24 nM	
CC1c2ccccc2C2CC(CN3CCC(O)C3)OC2c2cc(F)ccc21 (mixture of isomers) [Compound 46]	2400 nM	17.4 nM	1.1 nM	
O=C(Cc1ccc(Cl)cc1)NC1CCN(CC2CC3c4ccccc4Cc4ccc(F)cc4C3O2)CC1 (stereo not drawn) [Compound 239]	> 10000 nM	49 nM	22.9 nM	
N#CC1(c2ccccc2)CCN(C(=O)C2CCN(CC3CC4c5ccccc5Cc5ccc(F)cc5C4O3)CC2)CC1 (stereo not drawn) [Compound 208]	> 10000 nM	22.9 nM	7.94 nM	
COc1cc(C(=O)NC2CCN(CC3CC4c5ccccc5Cc5ccc(F)cc5C4O3)CC2)cc(OC)c1OC (stereo not drawn) [Compound 235]	9120 nM	18.6 nM	13.5 nM	
O=C(NCc1cccs1)C1CCN(CC2CC3c4ccccc4Cc4ccc(F)cc4C3O2)CC1 (stereo not drawn) [Compound 195]	7760 nM	5.5 nM	1.62 nM	
CCOC(=O)CC1CCN(CC2CC3c4ccccc4Cc4ccc(F)cc4C3O2)CC1 (stereo not drawn) [Compound 164, [2R-(2α, 3aα, 12bβ)][1-(11-fluoro-3,3a,8,12b-tetrahydro-2H-1-oxa-dibenzo[e,h]-azulen-2-ylmethyl)-piperidin-4-yl]-acetic acid ethyl ester.oxalate (1:1)]	5500 nM	2.88 nM	7.59 nM	
O=C(NC1CCN(CC2CC3c4ccccc4Cc4ccc(F)cc4C3O2)CC1)NC1CC1c1ccccc1 (mixture of isomers) [Compound 246]	1350 nM	11.7 nM	5.75 nM	
OC1CCN(C[C@H]2C[C@@H]3c4ccccc4Cc4ccc(F)cc4[C@@H]3O2)CC1 [Compound 144, [2R-(2α, 3aα, 12bβ)]1-(11-fluoro-3,3a,8,12b-tetrahydro-2H-1-oxa-dibenzo[e,h]azulen-2-ylmethyl)-piperidin-4-ol.oxalate (1:1)]	> 10000 nM	4.79 nM	0.692 nM	
OC1CCCN(CC2CC3c4ccccc4Cc4ccc(F)cc4C3O2)C1 (single isomer, unassigned) [Compound 143]	> 10000 nM	12.6 nM	1.82 nM	
O=C(NC1CCN(CC2CC3c4ccccc4Cc4ccc(F)cc4C3O2)CC1)c1ccccc1Br (stereo not drawn) [Compound 226]	10500 nM	5.37 nM	6.61 nM	
O=C(NCc1cccc(C(F)(F)F)c1)C1CCN(CC2CC3c4ccccc4Cc4ccc(F)cc4C3O2)CC1 (stereo not drawn) [Compound 182]	6920 nM	31.6 nM	8.32 nM	
O=C(NC1CCN(CC2CC3c4ccccc4Cc4ccc(F)cc4C3O2)CC1)C1CC1 (stereo not drawn) [Compound 220]	5370 nM	4.27 nM	2.14 nM	
O=C(NC1CCN(CC2CC3c4ccccc4Cc4ccc(F)cc4C3O2)CC1)c1ccccc1F (stereo not drawn) [Compound 232]	4070 nM	4.79 nM	9.77 nM	
COc1ccc(NC(=O)CC2CN(C[C@H]3C[C@@H]4c5ccccc5Cc5ccc(F)cc5[C@@H]4O3)CCO2)cc1 (stereo partly drawn) [Compound 139]	> 10000 nM	56.2 nM	24.5 nM	
Cc1cccc(C(=O)NC2CCN(CC3CC4c5ccccc5Cc5ccc(F)cc5C4O3)CC2)c1 (stereo not drawn) [Compound 225]	5250 nM	6.03 nM	11.2 nM	
CC(C)(C)COC(=O)NC1CCN(CC2CC3c4ccccc4Cc4ccc(F)cc4C3O2)CC1 (stereo not drawn) [Compound 215]	7410 nM	15.8 nM		
